# Measurements: article PMC12238723, “Phase I Clinical Trial of CVL218, a Novel PARP1/2 Inhibitor, in Patients with Advanced Solid Tumors” (MedComm, 2025)
# System: patients with advanced solid tumors
# Test: Treatment-related adverse events (CTCAE v5.0), phase I dose escalation
# Type: in vivo
# Excerpt: This study was a single‐arm, dose‐escalation phase I trial conducted in Sun Yat‐sen University Cancer Center in China. This study assessed CVL218 in patients with histologically or cytologically confirmed advanced solid tumors who were in PD after standard therapeutic regimens or lacked standard treatment options. Inclusion criteria included: age 18–75 years; with at least one measurable and evaluable target lesion per Response Evaluation Criteria in Solid Tumors 1.1 (RECIST 1.1); ECOG performance status of 0 or 1; adequate hematological, renal, cardiac, and hepatic functions and a life expectancy ≥12 weeks. Key exclusion criteria included prior usage of PARP inhibitors; allergic to the research drug or its components; with active, unstable systemic diseases or active, uncontrolled infection; a history of other malignancies within 5 years, and pregnant or lactating women.
# CVL218 was administered orally, and this dose‐escalation trial included nine dose levels: 100 mg QD (50 mg BID), 200 mg QD (100 mg BID), 400 mg QD (200 mg BID), 700 mg QD (350 mg BID), 1000 mg QD (500 mg BID), 1200 mg QD (600 mg BID), 1400 mg QD (700 mg BID), 1700 mg QD (850 mg BID), and 2000 mg QD (1000 mg BID). Patients enrolled in the study received a single oral dose on the first day, followed by continuous multiple dosing (twice a day taking 12 h apart) after 72 h, with the treatment cycle lasting 4 weeks. The period during which patients received a single dose is designated as cycle 0 (C0), lasting 72 h. After this period, patients begin multiple dosing, referred to as cycle 1 (C1). An initial accelerated titration design was employed for the three lowest dose groups, and the “3+3” design was applied starting with the 300 mg BID cohort.
# The primary objectives were to assess safety and tolerability as well as to determine the MTD, DLT, and dose recommended for further study. DLT was defined as any of the following events occurring during cycle 0 (including 72 h wash‐out period after a single dose) and cycle 1 per Common Terminology Criteria for Adverse Events (CTCAE) version 5.0: grade 4 anemia; grade 4 neutropenia; grade 3 neutropenia with fever ≥38.5°C; grade 4 thrombocytopenia; grade 3 thrombocytopenia associated with bleeding; grade ≥2 neurotoxicity; any other grade ≥3 nonhematological toxicities (excluding alopecia). The secondary objectives were to assess the PK and preliminary efficacy of CVL218.
# Subjects who received at least one dose of CVL218 with postadministration safety records were included in safety analysis set. Subjects who received at least one dose of CVL218 with at least one evaluable PK parameter were included in PK analysis set. Per‐protocol set were used for efficacy analysis. Descriptive statistics of safety were presented per CTCAE v5.0. The PK parameters T max and T 1/2 were shown as the median (min, max) and mean ± SD, respectively. A two‐sided p < 0.05 was considered to indicate statistical significance. Statistical analysis was performed by using GraphPad prism 8.0.2 and R‐4.3.3.
smiles,measurement,setting,value
CNCc1ccc(-c2cc3cc(F)cc(C(N)=O)c3o2)cc1.Cl [CVL218],Abdominal distension,"600 mg BID, ≥G3",0 n (%)
same,Abdominal pain,"600 mg BID, ≥G3",0 n (%)
same,Abdominal pain upper,"600 mg BID, ≥G3",0 n (%)
same,Amylase increased,"600 mg BID, ≥G3",0 n (%)
same,Anemia,"600 mg BID, ≥G3",0 n (%)
same,Any AE related to study drug,"600 mg BID, ≥G3",1 (25.0) n (%)
same,Asthenia,"600 mg BID, ≥G3",0 n (%)
same,Blood system disorders,"600 mg BID, ≥G3",0 n (%)
same,Blood triglycerides increased,"600 mg BID, ≥G3",0 n (%)
same,Cardiac disorders,"600 mg BID, ≥G3",0 n (%)
same,Chest discomfort,"600 mg BID, ≥G3",0 n (%)
same,Constipation,"600 mg BID, ≥G3",0 n (%)
same,Decreased appetite,"600 mg BID, ≥G3",0 n (%)
same,Diarrhea,"600 mg BID, ≥G3",0 n (%)
same,Dizziness,"600 mg BID, ≥G3",0 n (%)
same,Erectile dysfunction,"600 mg BID, ≥G3",0 n (%)
same,Gastrointestinal disorders,"600 mg BID, ≥G3",0 n (%)
same,General disorders,"600 mg BID, ≥G3",0 n (%)
same,Gingival bleeding,"600 mg BID, ≥G3",0 n (%)
same,Granulocyte count increased,"600 mg BID, ≥G3",0 n (%)
same,Headache,"600 mg BID, ≥G3",0 n (%)
same,Hypoalbuminemia,"600 mg BID, ≥G3",0 n (%)
same,Infusion site pain,"600 mg BID, ≥G3",0 n (%)
same,Limb discomfort,"600 mg BID, ≥G3",0 n (%)
same,Lipase increased,"600 mg BID, ≥G3",0 n (%)
same,Metabolic disorders,"600 mg BID, ≥G3",0 n (%)
same,Musculoskeletal discomfort,"600 mg BID, ≥G3",0 n (%)
same,Musculoskeletal disorders,"600 mg BID, ≥G3",0 n (%)
same,Nausea,"600 mg BID, ≥G3",0 n (%)
same,Nervous system disorders,"600 mg BID, ≥G3",0 n (%)
same,Neutrophil count decreased,"600 mg BID, ≥G3",0 n (%)
same,Neutrophil count increased,"600 mg BID, ≥G3",0 n (%)
same,Palpitations,"600 mg BID, ≥G3",0 n (%)
same,Protein urine present,"600 mg BID, ≥G3",0 n (%)
same,Proteinuria,"600 mg BID, ≥G3",0 n (%)
same,Rash,"600 mg BID, ≥G3",0 n (%)
same,Renal & urinary disorders,"600 mg BID, ≥G3",0 n (%)
same,Renal failure,"600 mg BID, ≥G3",0 n (%)
same,Reproductive disorders,"600 mg BID, ≥G3",0 n (%)
same,Skin disorders,"600 mg BID, ≥G3",0 n (%)
same,Urinary occult blood positive,"600 mg BID, ≥G3",0 n (%)
same,Vomiting,"600 mg BID, ≥G3",0 n (%)
same,WBC count decreased,"600 mg BID, ≥G3",0 n (%)
same,WBC count increased,"600 mg BID, ≥G3",0 n (%)
same,Infusion site pain,"700 mg BID, ALL",0 n (%)
same,WBC count increased,"700 mg BID, ALL",0 n (%)
same,ALT increased,"700 mg BID, ≥G3",0 n (%)
same,AST increased,"700 mg BID, ≥G3",0 n (%)
same,Abdominal distension,"700 mg BID, ≥G3",0 n (%)
same,Abdominal pain,"700 mg BID, ≥G3",0 n (%)
same,Abdominal pain upper,"700 mg BID, ≥G3",0 n (%)
same,Amylase increased,"700 mg BID, ≥G3",0 n (%)
same,Anemia,"700 mg BID, ≥G3",0 n (%)
same,Any AE related to study drug,"700 mg BID, ≥G3",0 n (%)
same,Asthenia,"700 mg BID, ≥G3",0 n (%)
same,Blood creatinine increased,"700 mg BID, ≥G3",0 n (%)
same,Blood system disorders,"700 mg BID, ≥G3",0 n (%)
same,Blood triglycerides increased,"700 mg BID, ≥G3",0 n (%)
same,Blood urea increased,"700 mg BID, ≥G3",0 n (%)
same,Cardiac disorders,"700 mg BID, ≥G3",0 n (%)
same,Chest discomfort,"700 mg BID, ≥G3",0 n (%)
same,Constipation,"700 mg BID, ≥G3",0 n (%)
same,Decreased appetite,"700 mg BID, ≥G3",0 n (%)
same,Diarrhea,"700 mg BID, ≥G3",0 n (%)
same,Dizziness,"700 mg BID, ≥G3",0 n (%)
same,Erectile dysfunction,"700 mg BID, ≥G3",0 n (%)
same,Gastrointestinal disorders,"700 mg BID, ≥G3",0 n (%)
same,General disorders,"700 mg BID, ≥G3",0 n (%)
same,Gingival bleeding,"700 mg BID, ≥G3",0 n (%)
same,Granulocyte count increased,"700 mg BID, ≥G3",0 n (%)
same,Headache,"700 mg BID, ≥G3",0 n (%)
same,Hypoalbuminemia,"700 mg BID, ≥G3",0 n (%)
same,Infusion site pain,"700 mg BID, ≥G3",0 n (%)
same,Laboratory test disorders,"700 mg BID, ≥G3",0 n (%)
same,Limb discomfort,"700 mg BID, ≥G3",0 n (%)
same,Lipase increased,"700 mg BID, ≥G3",0 n (%)
same,Metabolic disorders,"700 mg BID, ≥G3",0 n (%)
same,Musculoskeletal discomfort,"700 mg BID, ≥G3",0 n (%)
same,Musculoskeletal disorders,"700 mg BID, ≥G3",0 n (%)
same,Nausea,"700 mg BID, ≥G3",0 n (%)
same,Nervous system disorders,"700 mg BID, ≥G3",0 n (%)
same,Neutrophil count decreased,"700 mg BID, ≥G3",0 n (%)
same,Neutrophil count increased,"700 mg BID, ≥G3",0 n (%)
same,Palpitations,"700 mg BID, ≥G3",0 n (%)
same,Protein urine present,"700 mg BID, ≥G3",0 n (%)
same,Proteinuria,"700 mg BID, ≥G3",0 n (%)
same,Rash,"700 mg BID, ≥G3",0 n (%)
same,Renal & urinary disorders,"700 mg BID, ≥G3",0 n (%)
same,Renal failure,"700 mg BID, ≥G3",0 n (%)
same,Reproductive disorders,"700 mg BID, ≥G3",0 n (%)
same,Skin disorders,"700 mg BID, ≥G3",0 n (%)
same,Urinary occult blood positive,"700 mg BID, ≥G3",0 n (%)
same,Vomiting,"700 mg BID, ≥G3",0 n (%)
same,WBC count decreased,"700 mg BID, ≥G3",0 n (%)
same,WBC count increased,"700 mg BID, ≥G3",0 n (%)
same,Infusion site pain,"850 mg BID, ALL",0 n (%)
same,WBC count increased,"850 mg BID, ALL",1 (20.0) n (%)
same,ALT increased,"850 mg BID, ≥G3",0 n (%)
same,AST increased,"850 mg BID, ≥G3",0 n (%)
same,Abdominal distension,"850 mg BID, ≥G3",0 n (%)
same,Abdominal pain,"850 mg BID, ≥G3",1 (20) n (%)
same,Abdominal pain upper,"850 mg BID, ≥G3",0 n (%)
same,Amylase increased,"850 mg BID, ≥G3",0 n (%)
same,Anemia,"850 mg BID, ≥G3",0 n (%)
same,Any AE related to study drug,"850 mg BID, ≥G3",2 (40.0) n (%)
same,Asthenia,"850 mg BID, ≥G3",0 n (%)
same,Blood creatinine increased,"850 mg BID, ≥G3",2 (40.0) n (%)
same,Blood system disorders,"850 mg BID, ≥G3",0 n (%)
same,Blood triglycerides increased,"850 mg BID, ≥G3",0 n (%)
same,Blood urea increased,"850 mg BID, ≥G3",0 n (%)
same,Cardiac disorders,"850 mg BID, ≥G3",0 n (%)
same,Chest discomfort,"850 mg BID, ≥G3",0 n (%)
same,Constipation,"850 mg BID, ≥G3",0 n (%)
same,Decreased appetite,"850 mg BID, ≥G3",0 n (%)
same,Diarrhea,"850 mg BID, ≥G3",0 n (%)
same,Dizziness,"850 mg BID, ≥G3",0 n (%)
same,Erectile dysfunction,"850 mg BID, ≥G3",0 n (%)
same,Gastrointestinal disorders,"850 mg BID, ≥G3",1 (20) n (%)
same,General disorders,"850 mg BID, ≥G3",0 n (%)
same,Gingival bleeding,"850 mg BID, ≥G3",0 n (%)
same,Granulocyte count increased,"850 mg BID, ≥G3",0 n (%)
same,Headache,"850 mg BID, ≥G3",0 n (%)
same,Hypoalbuminemia,"850 mg BID, ≥G3",0 n (%)
same,Infusion site pain,"850 mg BID, ≥G3",0 n (%)
same,Laboratory test disorders,"850 mg BID, ≥G3",2 (40.0) n (%)
same,Limb discomfort,"850 mg BID, ≥G3",0 n (%)
same,Lipase increased,"850 mg BID, ≥G3",0 n (%)
same,Metabolic disorders,"850 mg BID, ≥G3",0 n (%)
